Patent publication US7192728B2, “Screening assays for agents that alter inhibitor of apoptosis (IAP) protein regulation of caspase activity” (The Burnham Institute, priority 1997, dated 2007)

What was measured:
[1] = system: DEVD-pNA hydrolysis activity in 293 cell cytosolic extracts; test: Cytochrome c/dATP-induced caspase activation (DEVD hydrolysis) in 293 cell cytosolic extracts; type: biochemical, human
Experimental: Cells were washed with ice cold buffer A (20 mM Hepes (pH 7.5), 10 mM KCl, 1.5 mM MgCl2, 1 mM EDTA, 1 mM DTT and 0.1 mM PMSF) and suspended in 1 vol buffer A, then incubated on ice for 20 min. 293 cells were disrupted by passage 15× through a 26 gauge needle and Jurkat T cells were disrupted by dounce homogenization in 2 ml using 15 strokes with a pestle B. Cell extracts (10–15 mg total protein/ml) were clarified by centrifugation at 16,000×g for 30 min, then the NaCl concentration was increased by 50 mM. Cytosolic fractions were used immediately or stored frozen at −80° C.
Caspase activity was assayed by release of either 7-amino-4-trifluoromethyl-coumarin (AFC) or p-nitroanilide (pNA) from benzylyoxycarbonyl-DEVD (SEQ ID NO: 2) or benzylyoxycarbonyl-YVAD (SEQ ID NO: 3) synthetic peptides using a Molecular Devices Spectromax 340 for AFC labeled peptides or Perkin/Elmer LS50B for pNA labeled peptides (see Example II; see, also, Zhou et al., supra, 1997). Cytosolic extracts from 293 cells or Jurkat T cells were used directly (negative control) or were treated with 1 μM cytochrome c and 1 mM dATP or with cytochrome c, dATP and 0.2 μM GST-XIAP. Additional control reactions were performed by substituting 2 μM GST-Bcl-2, GST-Bax, GST-NM23 or GST-CD40 cytosolic domain, or 5 μM His6-S5a protein for GST-XIAP. DEVD-pNA hydrolysis was measured at various times and multiple experiments were performed using several different GST-XIAP preparations.

pro-caspase-9 = test: Cytochrome c-induced processing of pro-caspase-9 in 293 cytosolic extracts; type: biochemical, human; details: for cytochrome c-induced pro-caspase-9 processing (in words): 0.2 μM GST-IAP, 30 min at 30° C.
Experimental: Cytochrome c induced processing of pro-caspase-9 was subsequently monitored by SDS-PAGE and autoradiography.
Pro-caspase-9 inhibition by Ac-DEVD-fmk, zVAD-fmk and XIAP was compared as follows. In vitro translated ^35S-labeled pro-caspase-9 was added to cytosolic extracts from 293 cells containing 10 μM cytochrome c and 1 mM dATP. Samples were incubated at 30° C. for 30 minutes in the presence of the indicated concentrations of inhibitors. Proteins were separated on SDS-PAGE gels, dried directly, and exposed to film.

caspase-9 = molecular target: T1, caspase-9 (Homo sapiens, UniProt P55211); test: Inhibition of purified recombinant active caspase-9; type: biochemical; details: for pro-caspase-3 activation by caspase-9, coupled Ac-DEVD-AFC hydrolysis (in words): coupled reaction
T1 construct: Full length N-terminally tagged caspase-9 was subcloned from pcDNA3; His6 (N); made in house; host or cells: E. coli BL21 (DE3), vector pET-23d
T1 sequence (P55211 1-315 limits assumed): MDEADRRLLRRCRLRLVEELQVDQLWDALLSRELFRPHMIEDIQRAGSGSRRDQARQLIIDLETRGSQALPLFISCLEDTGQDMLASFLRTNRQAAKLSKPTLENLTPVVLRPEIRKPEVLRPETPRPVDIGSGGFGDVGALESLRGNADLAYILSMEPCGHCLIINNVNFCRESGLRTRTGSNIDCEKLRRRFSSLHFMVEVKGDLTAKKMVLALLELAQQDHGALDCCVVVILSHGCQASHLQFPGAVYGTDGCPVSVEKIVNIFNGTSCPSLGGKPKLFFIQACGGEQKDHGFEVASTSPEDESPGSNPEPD
T1 sequence (P55211 331-416 limits assumed): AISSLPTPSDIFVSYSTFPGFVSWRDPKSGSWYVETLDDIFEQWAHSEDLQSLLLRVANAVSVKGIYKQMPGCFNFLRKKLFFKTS
Experimental: Caspase-9 activity was measured by monitoring the processing and activity of the purified recombinant zymogen form of caspase-3 that was produced in bacteria. Active caspase-9 (0.1 μM) was incubated with pro-caspase-3 (0.5 μM) in the presence or absence of GST-XIAP (0.1 μM). Experiments were performed with two independent preparations of active caspase-9. Samples were subsequently analyzed for pro-caspase-3 processing by immunoblot analysis. Asterisks denote the processed forms of the large subunit of caspase-3. Samples were simultaneously assayed for release of the AFC fluorophore from DEVD-AFC. Activity was arbitrarily designated as 100% for one of the two preparations of active caspase-9.
For the results shown in FIG. 7C, pro-caspase-9 was in vitro translated in reticulocyte lysates in the presence of ^35S-L-methionine and then purified by metal chromatography. […] Proteins were analyzed by SDS-PAGE and autoradiography. An asterisk denotes the processed form of caspase-9.

293 cells = test: Fas-induced apoptosis in transfected 293 cells; type: cell-based, human; details: co-transfection of Fas and myc-XIAP; 36 hrs
Experimental: For determination of apoptotic activity in FIG. 2B, 293 cells in 60 mm dishes were transiently transfected with 6 μg of pcDNA-myc-tag control or pcDNA-myc-XIAP plasmids, and either 2 ug of pCMV5 or pCMV5-Fas plasmid DNA. All transfections included 0.5 ug of pEGFP as a marker and were normalized for total DNA content. The percentage of GFP positive cells with apoptotic morphology and nuclear changes consistent with apoptosis were enumerated by DAPI-staining (mean+SD; n=3) at 36 hrs. Alternatively, cell lysates were prepared, and immunoprecipitates were collected using anti-myc monoclonal antibody with protein-G-Sepharose, followed by SDS-PAGE immunoblot assay using anti-caspase-3 antiserum (Krajewska et al., supra 1997) to reveal the XIAP-associated p24 isoform of partially processed caspase-3. Lanes correspond to cells transfected with: (1) control plasmid; (2) myc-XIAP; (3) Fas plus myc-control; and (4) Fas plus myc-XIAP.
Apoptotic assays were performed as follows. 293 cells were transfected as described above, except that 0.5 μg pEGFP plasmid DNA was included.

Substance | DEVD hydrolysis in activated 293 cell cytosolic extracts (in words) ([1]; 3 μM, extracts activated 30 min with cytochrome c and dATP) | cytochrome c-induced pro-caspase-9 processing (in words) (pro-caspase-9) | pro-caspase-3 activation by caspase-9, coupled Ac-DEVD-AFC hydrolysis (in words) (caspase-9) | DEVD-pNA hydrolysis, ΔA405 after 15 min ([1]; 293 extracts + cytochrome c/dATP, GST-XIAP 0.2 μM, GST controls 2 μM, His6-S5a 5 μM, untreated ≈0.01) | reduction of cytochrome c/dATP-induced DEVD-pNA hydrolyzing activity ([1]; extracts of cells transfected with pcDNA3-XIAP versus control plasmid) | potency relative to baculovirus p35 protein at inhibiting cytochrome c-induced processing of pro-caspase-9 (pro-caspase-9) | concentration to completely abolish cytochrome c-mediated processing of pro-caspase-9 (pro-caspase-9; 10 μM cytochrome c, 1 mM dATP, 30° C., 30 min) | processing of 35S-pro-caspase-9 by active caspase-9 (in words) (caspase-9; 0.1 μM caspase-9, 0.1 μM GST-XIAP, 30° C., 1 hr) | cleavage of pro-caspase-3 by caspase-9, immunoblot (in words) (caspase-9; equimolar to caspase-9 (0.1 μM), pro-caspase-3 0.5 μM) | Fas-induced apoptosis (in words) (293 cells)
c-IAP-2: cellular IAP protein c-IAP-2/HIAP-1/hMIHC, recombinant GST fusion or myc-tagged | inhibited DEVD hydrolysis | inhibited pro-caspase-9 processing, albeit to a lesser extent | efficiently inhibited |  |  |  |  |  |  | 
XIAP: X chromosome linked inhibitor of apoptosis protein (Genbank U32974), used mostly as recombinant GST fusion or expressed from plasmid |  | nearly completely abolished | efficiently inhibited | approximately the same as untreated control extracts | greater than 50% | about 5 fold | less than 0.2 μM | potently inhibited | strongly inhibited | markedly suppressed
